Reference: PMC9481563, “Structural insights into the pSer/pThr dependent regulation of the SHP2 tyrosine phosphatase in insulin and CD28 signaling” (Nature Communications, 2022)

Legend:
[1] = biological target: T1, inactive SHP2 catalytic domain Loopmut (K364E) (Homo sapiens, UniProt Q06124, C459S/K364E); assay: Fluorescence polarization titrations, SHP2 Loopmut; format: binding; details: competitive FP titration vs CF-ppIRS1 100 nM, protein fixed; n = 3 technical replicates
T1 construct: SHP2 K364E (Loopmut); 219-528 + C459S; His6 (N); made in house; host or cells: E. coli BL21 (DE3)
T1 sequence (Q06124 219-528 K364E/C459S): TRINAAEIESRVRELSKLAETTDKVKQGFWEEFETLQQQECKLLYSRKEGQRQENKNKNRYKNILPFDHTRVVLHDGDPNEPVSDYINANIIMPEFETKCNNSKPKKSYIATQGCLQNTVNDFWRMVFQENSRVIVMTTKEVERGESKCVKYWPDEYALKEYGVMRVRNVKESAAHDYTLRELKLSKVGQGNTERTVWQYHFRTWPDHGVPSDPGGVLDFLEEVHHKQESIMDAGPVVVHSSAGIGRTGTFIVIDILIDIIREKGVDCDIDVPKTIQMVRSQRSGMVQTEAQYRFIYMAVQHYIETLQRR
Excerpt: The two SH2 domains of PI3KR1 (UniProt P27986; nSH2: 321−433 cSH2: 614–724) were cloned from HEK293T cDNA pool, and subsequently ligated into a modified pET vector encoding maltose binding protein (MBP) tag on the N-terminal and a hexa-His tag on the C-terminal end of the construct. Similarly, the catalytic, tyrosine phosphatase domains of PTPRε (P23469 first domain: 107–399) and PTP1B (P18031; 1–229) were cloned from a HEK293T cDNA pool, and inserted into a pBH4 vector encoding an N-terminal His6 tag (for the final binding experiments, an MBP-tagged version of PTPRε was employed). […] Surface mutants of SHP2 were constructed from the SHP2-C459S plasmid, using the QuickChange protocol. The D425A and H426A catalytic site mutants and all enzymatically active surface mutants were generated similarly, but from the plasmid encoding the wild-type catalytic domain of SHP2. Wild-type C-terminal FLAG-tagged human IRS1 was cloned between HindIII-NotI sites of pcDNA3.1(+) vector (#V79020 Invitrogen, Waltham MA USA). Ser/Ala mutant IRS1 was generated by replacing the region of S616/S636/S666/S736 positions with a cassette carrying S616A/S636A/S666A/S736A mutations. All constructs were validated by complete Sanger sequencing before protein expression and purification. The oligonucleotide sequences used are shown on Supplementary table 4.
Fluorescence polarization (FP) assays were performed as follows: In direct titration experiments, protein concentration was varied in an 1/2 or 2/3 dilution series (90 µl protein+ 45 µl mix), while concentration of the reporter peptide (CF-ppIRS1) was kept constant at 100 nM. In competitive titrations, the labelled CF-ppIRS1 peptide and protein were both fixed (at 50–80% saturation) and the unlabelled competitor peptide concentration was varied. Fluorescence polarization was always measured in triplicates, on black Corning low volume round bottom 384-well plates (with 10 ul volumes), using a BioTek Cytatation 5 reader, with the green fluorescent protein (GFP) cube filter set (ex: 485/20, em: 528/20, gain: 50, height: 7.5). Fluorescence polarization data was evaluated on Origin 2018. The dissociation constants (Kd) were determined by using the appropriate quadratic and cubic equations inserted as a user-defined function and applying nonlinear fit until convergence. The fitting formulae are shown at Supplementary note 1. Kd ratio distributions for Fig. 6 were calculated using a Monte-Carlo approach (Supplementary note 2).
(§1) Supplementary note 1. Curve fitting of fluorescence polarization (FP) measurements.
(§2) To evaluate polarization values from direct and competitive titrations, we used the following fitting formulae in Origin 2018, as detailed below.
(§3) Direct titration curves were fitted according to the following formula: […]
(§4) Where Imin is the minimal anisotropy, Imax is the (asymptotically estimated) maximal intensity. K0 is the starting concentration of the protein, while T0 is the (fixed) concentration of the labelled peptide and Kd is the dissociation constant.
(§5) Competitive titration curves were fitted with a different formula (In addition to those defined above, constants KdT KdB B0 T0 and D0 here refer to the Kd derived from the direct titration, the unknown Kd of the analyte, the labelled peptide concentration, the competitor peptide concentration as well as the protein concentration, respectively).
(§6) The ± sign refers to two different scenarios, depending on the sign of discriminant (KdT > KdB or […]). For unknown analytes, the choice of sign is not arbitrary, as the fitting will not converge unless the appropriate formula is chosen: […]
(§7) Where A, B and C correspond to the following expressions: […]

[2] = biological target: T2, PTPRε first phosphatase domain, C335S (Homo sapiens, UniProt P23469, C335S); assay: biochemical; format: binding; details: competitive FP titration vs CF-ppIRS1 100 nM, protein fixed, unlabelled peptide varied; n = 3 technical replicates
T2 construct: PTPRε (P23469 first domain: 107–399); MBP; made in house; host or cells: E. coli BL21 (DE3)
T2 sequence (P23469 107-399 C335S): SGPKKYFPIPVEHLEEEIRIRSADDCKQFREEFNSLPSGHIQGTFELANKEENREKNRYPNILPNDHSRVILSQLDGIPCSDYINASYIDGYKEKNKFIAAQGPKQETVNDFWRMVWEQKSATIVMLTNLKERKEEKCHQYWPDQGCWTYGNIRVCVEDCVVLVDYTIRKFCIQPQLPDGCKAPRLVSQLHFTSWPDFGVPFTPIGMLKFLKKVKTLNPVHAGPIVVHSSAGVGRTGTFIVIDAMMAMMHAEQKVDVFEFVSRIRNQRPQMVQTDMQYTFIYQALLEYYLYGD
Excerpt: The two SH2 domains of PI3KR1 (UniProt P27986; nSH2: 321−433 cSH2: 614–724) were cloned from HEK293T cDNA pool, and subsequently ligated into a modified pET vector encoding maltose binding protein (MBP) tag on the N-terminal and a hexa-His tag on the C-terminal end of the construct. Similarly, the catalytic, tyrosine phosphatase domains of PTPRε (P23469 first domain: 107–399) and PTP1B (P18031; 1–229) were cloned from a HEK293T cDNA pool, and inserted into a pBH4 vector encoding an N-terminal His6 tag (for the final binding experiments, an MBP-tagged version of PTPRε was employed). […] Wild-type C-terminal FLAG-tagged human IRS1 was cloned between HindIII-NotI sites of pcDNA3.1(+) vector (#V79020 Invitrogen, Waltham MA USA). Ser/Ala mutant IRS1 was generated by replacing the region of S616/S636/S666/S736 positions with a cassette carrying S616A/S636A/S666A/S736A mutations. All constructs were validated by complete Sanger sequencing before protein expression and purification. The oligonucleotide sequences used are shown on Supplementary table 4.
Fluorescence polarization was always measured in triplicates, on black Corning low volume round bottom 384-well plates (with 10 ul volumes), using a BioTek Cytatation 5 reader, with the green fluorescent protein (GFP) cube filter set (ex: 485/20, em: 528/20, gain: 50, height: 7.5). Fluorescence polarization data was evaluated on Origin 2018. The dissociation constants (Kd) were determined by using the appropriate quadratic and cubic equations inserted as a user-defined function and applying nonlinear fit until convergence. The fitting formulae are shown at Supplementary note 1. Kd ratio distributions for Fig. 6 were calculated using a Monte-Carlo approach (Supplementary note 2).
as §1, §2, §3, §4, §5, §6, §7

| Compound | Kd [1] [µM] | Kd [2] [µM] | Kd (competitive titration) [1] |
| --- | --- | --- | --- |
| CC[C@H](C)[C@H](NC(=O)[C@H](CC(N)=O)NC(=O)[C@@H](NC(=O)[C@H](Cc1ccc(OP(=O)(O)O)cc1)NC(=O)[C@H](CCC(=O)O)NC(=O)CNC(=O)[C@@H]1CCCN1C(=O)[C@H](COP(=O)(O)O)NC(=O)[C@H](CCCCN)NC(=O)[C@@H]1CCCN1C(=O)[C@@H](N)CCC(=O)O)C(C)C)C(=O)N[C@@H](CCC(=O)O)C(=O)N[C@@H](Cc1ccccc1)C(=O)O [ppSRev-IRS1] | 0.99 ± 0.07 |  |  |
| CSCC[C@H](NC(=O)[C@H](Cc1ccc(OP(=O)(O)O)cc1)NC(=O)[C@H](CC(=O)O)NC(=O)[C@H](CO)NC(=O)[C@H](Cc1c[nH]cn1)NC(=O)[C@H](CC(C)C)NC(=O)[C@H](CC(C)C)NC(=O)[C@H](CCCNC(=N)N)NC(=O)[C@H](CO)NC(=O)[C@@H](N)CCCNC(=N)N)C(=O)N[C@@H](CC(N)=O)C(=O)N[C@@H](CCSC)C(=O)N[C@H](C(=O)N1CCC[C@H]1C(=O)N[C@@H](CCCNC(=N)N)C(=O)N[C@@H](CCCNC(=N)N)C(=O)O)[C@@H](C)OP(=O)(O)O [ppCD28] | 6.66 ± 0.38 | 1.24 ± 0.08 |  |
| CSCC[C@H](NC(=O)[C@@H]1CCCN1C(=O)[C@H](CCSC)NC(=O)[C@H](Cc1ccc(OP(=O)(O)O)cc1)NC(=O)[C@H](CC(=O)O)NC(=O)CNC(=O)[C@H](CO)NC(=O)CNC(=O)[C@H](CCCCN)NC(=O)[C@H](CCCNC(=N)N)NC(=O)CN)C(=O)N[C@@H](CO)C(=O)N1CCC[C@H]1C(=O)N[C@@H](CCCCN)C(=O)N[C@@H](CO)C(=O)O [p0IRS1] | 23.3 ± 0.9 | 36 ± 2.44 | bound stronger |
| CC[C@H](C)[C@H](NC(=O)[C@H](CC(N)=O)NC(=O)[C@@H](NC(=O)[C@H](Cc1ccc(OP(=O)(O)O)cc1)NC(=O)[C@H](CCC(=O)O)NC(=O)CNC(=O)[C@@H]1CCCN1C(=O)[C@H](CO)NC(=O)[C@H](CCCCN)NC(=O)[C@@H]1CCCN1C(=O)[C@@H](N)CCC(=O)O)C(C)C)C(=O)N[C@@H](CCC(=O)O)C(=O)N[C@@H](Cc1ccccc1)C(=O)O [p0SRev-IRS1] | 7.73 ± 1.08 |  |  |
| CSCC[C@H](NC(=O)[C@H](Cc1ccc(OP(=O)(O)O)cc1)NC(=O)[C@H](CC(=O)O)NC(=O)[C@H](CO)NC(=O)[C@H](Cc1c[nH]cn1)NC(=O)[C@H](CC(C)C)NC(=O)[C@H](CC(C)C)NC(=O)[C@H](CCCNC(=N)N)NC(=O)[C@H](CO)NC(=O)[C@@H](N)CCCNC(=N)N)C(=O)N[C@@H](CC(N)=O)C(=O)N[C@@H](CCSC)C(=O)N[C@H](C(=O)N1CCC[C@H]1C(=O)N[C@@H](CCCNC(=N)N)C(=O)N[C@@H](CCCNC(=N)N)C(=O)O)[C@@H](C)O [p0CD28] | 20.5 ± 1.53 | 1.18 ± 0.1 |  |
| CSCC[C@H](NC(=O)[C@@H]1CCCN1C(=O)[C@H](CCSC)NC(=O)[C@H](Cc1ccc(OP(=O)(O)O)cc1)NC(=O)[C@H](CC(=O)O)NC(=O)CNC(=O)[C@H](CO)NC(=O)CNC(=O)[C@H](CCCCN)NC(=O)[C@H](CCCNC(=N)N)NC(=O)CN)C(=O)N[C@@H](COP(=O)(O)O)C(=O)N1CCC[C@H]1C(=O)N[C@@H](CCCCN)C(=O)N[C@@H](CO)C(=O)O [ppIRS1] | 3.01 ± 0.42 | 16.5 ± 1.7 | bound stronger |
